Reference: patent US9988403B2, “Compositions and methods for treating cancer with aberrant lipogenic signaling” (Thomas Jefferson University, priority 2012, dated 2018)

Test system: Drosophila
Test: Drosophila development, viability and life span on compound food
Assay type: in vivo

CC1(C)OB(c2ccc(/C=C/c3ccc(O)cc3)cc2)OC1(C)C [BF102]
Drosophila development and viability (200 μM in food): do not affect
life span of adult flies (adult flies fed food mixed with compound, data not shown): do not have any obvious effect
